Experiments:
r(CUG)10-MBNL1 complex = assay: qTR-FRET assay, disruption of pre-formed r; assay type: biochemical; details: read-out: IC50 for r(CUG)-MBNL1, pre-formed r(CUG)10-MBNL1 complex, displacement
tRNA = assay: RNA binding assay; design: species or system yeast; details: read-out: tRNA Kd
r(CUG)12×2 = details: read-out: r(CUG)12×2 Kd; data taken from a previous report; cited from earlier work

Molecule | IC50 (r(CUG)10-MBNL1 complex) [µM] | Kd (tRNA) [µM] | Kd (r(CUG)12×2) [µM]
NC1C(O)[C@H](OC2[C@H](N)CC(N)[C@@H](O[C@H]3OC(CNC(=O)CCCc4cn(CCCNC(=S)Nc5ccc(-c6c7ccc(=O)cc-7oc7cc(O)ccc67)c(C(=O)O)c5)nn4)[C@@H](O)[C@H](O)C3O)[C@@H]2O)OC(CO)[C@@H]1O (stereo partly shown) [FITC-K] | > 250 | > 10 | 1 ± 0.25
MBNL1: muscleblind-like 1 protein, RNA splicing regulator (protein, UniProt Q9NR56 1-388, looked up) Muscleblind-like protein 1: MAVSVTPIRDTKWLTLEVCREFQRGTCSRPDTECKFAHPSKSCQVENGRVIACFDSLKGRCSRENCKYLHPPPHLKTQLEINGRNNLIQQKNMAMLAQQMQLANAMMPGAPLQPVPMFSVAPSLATNASAAAFNPYLGPVSPSLVPAEILPTAPMLVTGNPGVPVPAAAAAAAQKLMRTDRLEVCREYQRGNCNRGENDCRFAHPADSTMIDTNDNTVTVCMDYIKGRCSREKCKYFHPPAHLQAKIKAAQYQVNQAAAAQAAATAAAMTQSAVKSLKRPLEATFDLGIPQAVLPPLPKRPALEKTNGATAVFNTGIFQYQQALANMQLQQHTAFLPPVPMVHGATPATVSAATTSATSVPFAATATANQIPIISAEHLTSHKYVTQM |  |  | 0.25

From publication PMC3528830 (ACS chemical biology, 2012)
